Measured values: ChEMBL document CHEMBL3774390, “Azide-enolate 1,3-dipolar cycloaddition in the synthesis of novel triazole-based miconazole analogues as promising antifungal agents” (2016)
In brackets after ≈: the same amount, converted by molar mass.

Columns and labels:
Format in all cases: functional
Mucor hiemalis = assay: Antifungal activity against Mucor hiemalis ATCC 8690 by M38-A protocol-based microdilution method
Candida albicans = assay: Antifungal activity against Candida albicans ATCC 10231 by M27-A3 protocol-based broth microdilution method
Rhizopus arrhizus = assay: Antifungal activity against Rhizopus oryzae ATCC 10329 by M38-A protocol-based microdilution method
Cyberlindnera jadinii = assay: Antifungal activity against Candida utilis ATCC 9226 by M27-A3 protocol-based broth microdilution method; conditions: Williopsis jadinii
Aspergillus fumigatus = assay: Antifungal activity against Aspergillus fumigatus ATCC 16907 by M38-A protocol-based broth microdilution method
[1] = Antifungal activity against Trichosporon cutaneum ATCC 28592 by M38-A protocol-based microdilution method; conditions: Cutaneotrichosporon cutaneum
Candida tropicalis = assay: Antifungal activity against Candida tropicalis ATCC 13803 by M27-A3 protocol-based broth microdilution method

Row | MIC (Mucor hiemalis) | MIC (Candida albicans) | MIC (Rhizopus arrhizus) | MIC (Cyberlindnera jadinii) | MIC (Aspergillus fumigatus) | MIC [1] | MIC (Candida tropicalis) | Structure (SMILES)
1 | 16 µg/mL (≈ 39.4 µM) | 0.03 µg/mL (≈ 0.0738 µM) | 8 µg/mL (≈ 19.7 µM) | 2 µg/mL (≈ 4.92 µM) | 0.5 µg/mL (≈ 1.23 µM) | 8 µg/mL (≈ 19.7 µM) | 0.03 µg/mL (≈ 0.0738 µM) | CCCCC(C)(C)c1cnnn1C(Cn1ccnc1)c1ccc(Cl)cc1Cl (stereo unspecified)
2 | 16 µg/mL (≈ 43.9 µM) | 16 µg/mL (≈ 43.9 µM) | 8 µg/mL (≈ 22 µM) | 16 µg/mL (≈ 43.9 µM) | 16 µg/mL (≈ 43.9 µM) | 16 µg/mL (≈ 43.9 µM) | 16 µg/mL (≈ 43.9 µM) | CC(=O)c1nnn(C(Cn2ccnc2)c2ccc(Cl)cc2Cl)c1C (stereo unspecified)
3 | 16 µg/mL (≈ 37.2 µM) | 4 µg/mL (≈ 9.29 µM) | 16 µg/mL (≈ 37.2 µM) | 16 µg/mL (≈ 37.2 µM) | 16 µg/mL (≈ 37.2 µM) | 16 µg/mL (≈ 37.2 µM) | 1 µg/mL (≈ 2.32 µM) | CSc1ccc(-c2cnnn2C(Cn2ccnc2)c2ccc(Cl)cc2Cl)cc1 (stereo unspecified)
4 | 0.25 µg/mL (≈ 0.482 µM) | 0.06 µg/mL (≈ 0.116 µM) | 0.5 µg/mL (≈ 0.964 µM) | 0.25 µg/mL (≈ 0.482 µM) | 2 µg/mL (≈ 3.86 µM) | 0.12 µg/mL (≈ 0.231 µM) | 0.06 µg/mL (≈ 0.116 µM) | CCCCCc1c(S(=O)(=O)c2ccccc2)nnn1C(Cn1ccnc1)c1ccc(Cl)cc1Cl (stereo unspecified)
5 | 0.12 µg/mL (≈ 0.307 µM) | 16 µg/mL (≈ 41 µM) | 2 µg/mL (≈ 5.12 µM) | 16 µg/mL (≈ 41 µM) | 16 µg/mL (≈ 41 µM) | 16 µg/mL (≈ 41 µM) | 8 µg/mL (≈ 20.5 µM) | Clc1ccc(C(Cn2ccnc2)n2nncc2C2CCCCC2)c(Cl)c1 (stereo unspecified)
6 | 16 µg/mL (≈ 39.1 µM) | 16 µg/mL (≈ 39.1 µM) | 16 µg/mL (≈ 39.1 µM) | 16 µg/mL (≈ 39.1 µM) | 16 µg/mL (≈ 39.1 µM) | 16 µg/mL (≈ 39.1 µM) | 16 µg/mL (≈ 39.1 µM) | N#Cc1nnn(C(Cn2ccnc2)c2ccc(Cl)cc2Cl)c1-c1ccccc1 (stereo unspecified)
7 | 16 µg/mL (≈ 32.8 µM) | 0.03 µg/mL (≈ 0.0614 µM) | 8 µg/mL (≈ 16.4 µM) | 16 µg/mL (≈ 32.8 µM) | 16 µg/mL (≈ 32.8 µM) | 16 µg/mL (≈ 32.8 µM) | 0.06 µg/mL (≈ 0.123 µM) | O=C(c1ccccc1)c1nnn(C(Cn2ccnc2)c2ccc(Cl)cc2Cl)c1-c1ccccc1 (stereo unspecified)

Row | Structure (SMILES) | MIC (Mucor hiemalis) | MIC (Candida albicans) | MIC (Rhizopus arrhizus) | MIC (Cyberlindnera jadinii) | MIC (Aspergillus fumigatus) | MIC [1] | MIC (Candida tropicalis)
8 | CCC(C)n1ncn(-c2ccc(N3CCN(c4ccc(OCC5COC(Cn6cncn6)(c6ccc(Cl)cc6Cl)O5)cc4)CC3)cc2)c1=O (stereo unspecified) [ITRACONAZOLE] | 1 µg/mL (≈ 1.42 µM) | 0.03 µg/mL (≈ 0.0425 µM) | 0.5 µg/mL (≈ 0.709 µM) | 0.06 µg/mL (≈ 0.085 µM) | 0.25 µg/mL (≈ 0.354 µM) | 1 µg/mL (≈ 1.42 µM) | 0.03 µg/mL (≈ 0.0425 µM)
